Test: Solubility in water
Assay type: physicochemical
Excerpt: For the solid compounds, the solubility is defined as the percentage by weight of the compound in a solution at equilibrium with the solid phase at the above temperature T and a pressure of one atmosphere. For the liquid compounds (or solids in the pure state), the aqueous mixtures of which separate into two or more phases, the solubility taken into account is the percentage by weight of the specified compound in the water-rich liquid phase at equilibrium at the operating temperature (temperature at which said particles are manufactured (as the case may be, between 20 and 95° C.)) and a pressure of one atmosphere.

solubility in water (at 20° C.) | solubility in water (at 25° C.) [% by weight] | solubility in water (temperature not stated) [%] | Structure (SMILES)
approximately 7 % by weight | – | – | CCCCN(CCC(=O)OCC)C(C)=O [IR3535, ethyl 3-[acetyl(butyl)amino]propanoate, reference compound]
– | 30 | 39 | OC[C@@H](O)[C@H](O)[C@@H](O)CO [xylitol]

Reference: US10449128B2, “Fibrous support comprising particles containing a partially water-soluble active agent, particles, and methods for producing said particles” (priority 2014, dated 2019)
